# Entries after “also recorded” stand apart in the source; their conditions may differ. Like-named read-outs stand apart in the source and are kept apart here.
# How the values were obtained:
# [1] = tested on: Lysolecithin induced optic neuritis in SD Rats; test: Demyelination score (Luxol fast blue stained optic nerve) in lysolecithin induced acute optic neuritis model; type: in vivo, Sprague Dawley Rat
# Method: (§1) • Receipt of animals (Male Sprague Dawley Rats, Age: 12-13 weeks, Body weight range at the time of study initiation: 306.8 — 385.2 g) and acclimatization of animals for a period of at least one week • Day 0: Administration of Lysolecithin in optic nerve • Administration of test compound (BN201) daily (Day 0 to day 6=7 doses in total) intra-peritoneally (IP) at various doses (10 mg/Kg, 25 mg/Kg, 70 mg/Kg) and Intravenously (infusion 25 mg/Kg) over 2 h for block1. • On day 6, Sampling of blood from block1 for plasma at predetermined time points (8-9 time points) for PK and tissue collection (Eye and optic nerve) for histopathological assessment. • Determination of plasma levels of BN201 by LC-MS/MS • Determination of Pharmacokinetic Parameters of BN201 by WinNonlin Analysis • Test compound administration (IP@10 & 25 mg/Kg) once daily (Day 0 to day 6=7 doses in total) for block2; Tissue collection (Eye and optic nerve collection during termination of the study) on day 14, and 28 for histopathological assessment. 3. Animal Conditioning
# (§2) Animals were anesthetized; the shaved skin was disinfected with 75% ethanol. A 1 cm incision was made in the skin above the orbit of an eye. The lacrimal glands and extraocular muscles were resected to expose 3 mm of the optic nerve under an operating microscope. The dura and arachnoid matter around the optic nerve were opened longitudinally. A small amount of dye was placed on the dura to show the microinjection site. This is done to identify the focal lesion for the histology. Microinjection was performed with a glass micropipette attached to a Hamilton syringe. The pipette was inserted into the optic nerve as superficially as possible at 2 mm posterior to the globe, and 0.8 μL of 1% lysolecithin (with 0.02% Evan's Blue) was slowly pressure-injected into the nerve over approximately 30 seconds. The sham control rats (animals without disease) were injected with 0.02% Evan's Blue in 0.8 μL saline without lysolecithin. After the injection, the skin incision was sutured, and antibiotic solution were administered to prevent infection.
# (§3) • Group 1 and 2 served as sham and pathological control respectively and only saline was administered • Test compound was delivered once at various doses (as mentioned above) through IP or IV infusion in the respective groups. The first dosage was given 1 hour after Lysolecithin injection and repeated once/day until the end of the experiment • On day 6, blood was collected at various time points after administration of test item for drug concentration measurement: • Group 3-5 (IP groups): Pre-dose, 0.25, 0.5, 1, 4, 8 h, 12 h & 24 h (8 time points) • Group 6 (IV Infusion group): Pre-dose, then the following times post infusion: Oh (end of the infusion), 0.25 h, 0.5 h, 1 h, 4 h, 8 h, 12 h & 24 h (9 time points) • ˜200 μL of blood per time point was collected from Jugular vein for all the time points in K2EDTA blood collection tubes and stored at 4° C. until plasma separation within 30 minutes. After plasma separation, all the plasma samples were stored in two aliquots at −80° C. until the completion of all the time points. Further, one aliquot of plasma samples was submitted together to the DMG/KG for drug concentration analysis. 9. Observation and Readouts 9.1 Body weight
# (§4) • Animals were euthanized on Day 7 with CO2 and were perfused transcardially with saline and 4% paraformaldehyde. Optic nerves (from globe to chiasm) and eye were removed and were fixed in 1% paraformaldehyde overnight. Eye from all the animals were collected in Davidson's fixative. • All tissues were processed in an automatic tissue processor and embedded in paraffin. Five-micro meter-thick (5 μm) transverse sections were made at the site of injections (at the place of the dye) using a rotary microtome. • Serial sections of each optic nerve were obtained (4-6 sections). […]
# [2] = tested on: Lysolecithin induced optic neuritis in SD Rats; test: Inflammation (H&E stained optic nerve) in lysolecithin induced acute optic neuritis model; type: in vivo, Sprague Dawley Rat; conditions: BN201 treatment, conclusions over blocks 1 and 2
# Method: as §1
# Animals were anesthetized; the shaved skin was disinfected with 75% ethanol. […]
# • Group 1 and 2 served as sham and pathological control respectively and only saline was administered • Test compound was delivered once at various doses (as mentioned above) through IP or IV infusion in the respective groups. […] Observation and Readouts 9.1 Body weight […]
# [3] = Plasma pharmacokinetics of BN201 in rats (LC-MS/MS, WinNonlin); type: in vivo, Sprague Dawley Rat; conditions: 7 doses, Mean ± SEM; for Vd: iv, 25 mg/kg; for AUC(0-inf) / AUC(0-t) / Cmax / Tmax / half-life / AUC_%Extrap (obs): rat plasma
# Method: as §1, §3
# Study samples were processed by protein precipitation method using cold acetonitrile. In brief, 10 μL of plasma was mixed with 200 μL of acetonitrile containing 100 ng/mL-Verapamil as internal standard. The contents were vortexed to ensure mixing and the precipitated protein was removed by centrifugation at 4000 rpm for 15 minutes at 4° C. The supernatant was collected and submitted for Bioanalysis.
# [4] = Phase 1 trial in healthy volunteers (pharmacokinetics); type: in vivo; conditions: humans
# [5] = Body weight in lysolecithin induced acute optic neuritis study; type: in vivo, Sprague Dawley Rat; conditions: Blocks 1 & 2, compared to pathological control group
# Method: Body weight measurement was performed every morning from day 0 to day 7. All animals were observed regularly for clinical signs.
# [6] = tested on: Lysolecithin induced optic neuritis in SD Rats; test: Retinal ganglion cell (RGC) count in lysolecithin induced acute optic neuritis model; type: in vivo, Sprague Dawley Rat
# Method: as §1, §2, §3, §4
# [7] = tested on: Lysolecithin induced optic neuritis in SD Rats; test: Axonal loss score (BSS stained optic nerve) in lysolecithin induced acute optic neuritis model; type: in vivo, Sprague Dawley Rat
# Method: as §1, §2, §3, §4
# [8] = tested on: Lysolecithin induced optic neuritis in SD Rats; test: Overall efficacy in lysolecithin induced acute optic neuritis model; type: in vivo, Sprague Dawley Rat; conditions: daily IV 25 mg/Kg (2 h infusion) compared to 10, 25 and 70 mg/Kg IP
# Method: The aim of Block1 was to determine the efficacy of BN201 administered intraperitoneally at various doses (10 mg/Kg, 25 mg/Kg, 70 mg/Kg) and intravenously at 25 mg/Kg in Lysolecithin induced optic neuritis in SD Rats (7 days study).
# The aim of Block2 was to determine the efficacy of BN201 in long duration model of lysolecithin induced optic neuritis in SD rats (14 and 28 day study) […]
# • Group 1 and 2 served as sham and pathological control respectively and only saline was administered • Test compound was delivered once at various doses (as mentioned above) through IP or IV infusion in the respective groups. […] Observation and Readouts 9.1 Body weight
# [9] = tested on: serum-glucocorticoid (SGK) pathway; conditions: cited from earlier work
# [10] = BN201 treatment, short term and long term, summary vs untreated groups
# [11] = male, Sprague Dawley, IP 10 mg/Kg once daily
# [12] = male, Sprague Dawley, IP 25 mg/Kg once daily
# [13] = male, Sprague Dawley, IP 70 mg/Kg once daily
# [14] = male, Sprague Dawley, IV infusion 25 mg/Kg over 2 h once daily
# [15] = Block 2, day 28, 25 mg/Kg IP day 0 to day 6, vs placebo (p<0.05)
smiles,measurement,setting,value
"CC(C)CN(CC(=O)N(CCCN1CCCC1=O)CC(N)=O)C(=O)CNCCc1ccccc1F [BN201, [N-(2-(2′-fluorophenyl)ethyl)-glycyl]-[N-(2-methylpropyl)-glycyl]-N-[3-(2′-oxopyrrolidinyl)-propyl]glycinamide]",demyelination,[1]; [10],reduced; also recorded: significant improvement
same,protection against demyelination (demyelination score),"[1]; Block 1, day 7, 10 mg/Kg IP",13%
same,protection against demyelination (demyelination score),"[1]; Block 1, day 7, 25 mg/Kg IP",15%
same,protection against demyelination,"[1]; Block 1, day 7, 25 mg/Kg IV infusion",22%
same,protection against demyelination (demyelination score),"[1]; Block 1, day 7, 70 mg/Kg IP",44%
same,Demyelination score,"[1]; Block 2, day 28, 10 mpk IP day 0 to day 6, vs placebo (p<0.05)",significantly lower
same,Demyelination score,"[1]; Block 2, day 28, 25 mpk IP day 0 to day 6, vs placebo (p<0.05)",significantly lower
same,inflammation,[2],reduced inflammation
same,MRT inf,"[3]; male, Sprague Dawley, plasma, rat, IV infusion 25 mg/Kg over 2 h once daily",3 h
same,clearance,"[3]; male, Sprague Dawley, plasma, rat, IV infusion 25 mg/Kg over 2 h once daily, read-out: CLp (converted)",31.7 mL/min/kg
same,Vd,"[3]; male, Sprague Dawley, rat, plasma, rat, IV infusion 25 mg/Kg over 2 h once daily, read-out: Vd",15.8 ± 2.2 L/kg
same,Vd,"[3]; male, Sprague Dawley, rat, plasma, rat, IV infusion 25 mg/Kg over 2 h once daily, read-out: Vdss",5.7 ± 1.2 L/kg
same,AUC(0-inf),[3]; [11],6990 ng·h/mL
same,AUC(0-t),[3]; [11],6920 ± 385 ng·h/mL
same,Cmax,[3]; [11],6680 ± 349 ng/mL
same,Tmax,[3]; [11],0.3 h
same,half-life,[3]; [11],5.5 ± 0.9 h
same,AUC(0-inf),[3]; [12],14700 ± 840 ng·h/mL
same,AUC(0-t),[3]; [12],14500 ± 859 ng·h/mL
same,Cmax,[3]; [12],14400 ± 1540 ng/mL
same,Tmax,[3]; [12],0.3 h
same,half-life,[3]; [12],5.8 ± 0.2 h
same,AUC(0-inf),[3]; [13],62800 ± 2760 ng·h/mL
same,AUC(0-t),[3]; [13],62400 ± 2720 ng·h/mL
same,Cmax,[3]; [13],34700 ± 2010 ng/mL
same,Tmax,[3]; [13],0.3 h
same,half-life,[3]; [13],4.7 ± 0.8 h
same,AUC(0-inf),[3]; [14],15400 ± 1810 ng·h/mL
same,AUC(0-t),[3]; [14],15100 ± 1780 ng·h/mL
same,Cmax,[3]; [14],10400 ± 1320 ng/mL
same,Tmax,[3]; [14],2 h
same,half-life,[3]; [14],6.2 ± 0.9 h
same,AUC_%Extrap (obs),[3]; IP 10 mg/Kg once daily,1 ± 0.2%
same,AUC_%Extrap (obs),[3]; IP 25 mg/Kg once daily,1 ± 0.3%
same,AUC_%Extrap (obs),[3]; IP 70 mg/Kg once daily,0.5 ± 0.1%
same,AUC_%Extrap (obs),[3]; IV infusion 25 mg/Kg over 2 h once daily,1.6 ± 0.2%
same,half-life,"[4]; human, in vivo",≤ 8 h
same,clearance of the drug,[4],quick clearance
same,drug accumulation,[4],lack of drug accumulation
same,Body weight,[5],did not significantly change the body weight
same,retinal ganglion cells,[6]; [10],significant improvement in retinal ganglion cells
same,protection against retinal ganglion cell loss,"[6]; Block 1, day 7, 25 mg/Kg IP",48%
same,protection against retinal ganglion cell loss,"[6]; Block 1, day 7, 70 mg/Kg IP",69%
same,RGC count,"[6]; Block 1, day 7, BN201 treated groups vs pathological control",trend of increased RGC count
same,RGC count,"[6]; Block 1, day 7, IV infusion 25 mg/Kg vs pathological control",statistically significant improvement in RGC count
same,RGC count,[6]; [15],improvements; also recorded: significantly higher
same,axonal loss,"[7]; BN201 treatment, conclusions over blocks 1 and 2",reduced
same,protection against axonal loss (axonal loss score),"[7]; Block 1, day 7, 10, 25 and 70 mg/Kg IP",36-39%
same,protection against axonal loss,"[7]; Block 1, day 7, IV infusion 25 mg/Kg",62%
same,Axonal loss score,"[7]; Block 2, day 28, 10 mg/Kg IP day 0 to day 6, vs placebo (p<0.05)",significant reduction in axonal loss; also recorded: significantly lower
same,Axonal loss score,[7]; [15],significant reduction in axonal loss; also recorded: significantly lower
same,protection of axons against injury,"[7]; IP or IV, 10 to 70 mg/Kg/day for 6 days, short term (7 days) and long term (up to day 28 post-injury)",able to protect axons against injury
same,protection against optic neuritis,[8],superior protection against optic neuritis
same,"activation of the SGK pathway, including phosphorylation of Foxo3 or NDRG1",[9],activates the serum-glucocorticoid (SGK) pathway

# — US12594259B2, “Treatment regimen for the treatment of neurological diseases or conditions” (ACCURE THERAPEUTICS, S.L., priority 2019, dated 2026)
